Results reported in patent publication US20260258025A1, “INHIBITORS OF TDP-43 AND TAU AGGREGATION” (Aquinnah Pharmaceuticals, inc., priority 2023, published 2026).
Where a SMILES comes first, the peptide text is derived from it. The star is where a group is joined. Cbz = O=C(OCc1ccccc1)*

What was measured:
Assay type in all cases: cell-based
[1] = test system: insoluble TDP-43; assay: Cell fractionation and immunoblot of TDP-43 in MG-132 challenged human motor neurons; details: MG-132 1 μM, vs unstressed
Experimental: Cell culture and differentiation of iPS Cells into motor neurons. Pluripotent stem cells were grown with mTeSR Plus medium on tissue culture dishes coated with Matrigel, and maintained in 5% CO2 incubators at 37° C. Stem cells were passaged as small aggregates of cells after 1 mM EDTA treatment. […] was added to the cultures for 16-24 h after dissociation to prevent cell death. The iP11NA iPS cell line was acquired from ALSTEM. This cell line was generated from pre-made footprint-free human iPS cells with DOX inducible Ngn2 that has been stably integrated into the human AAVS1 “Safe Harbor” site, and provides a convenient means to differentiate human iPS cells into neurons rapidly and efficiently. Motor neuron differentiation was achieved using a modified 5-day strategy. […]
For analysis of TDP-43 cellular distribution, d14 motor neurons were lysed with Thermo Subcellular Protein Fractionation Kit for cultured cells and processed according to the manufacturer's instructions. […] Fluorescent secondary antibodies were used for band detection and the Kaleidoscope precision plus protein ladder for size estimation. iBright FL1500 imaging system and software were used to quantitate protein band signal. […]

[2] = test system: TDP-43 nuclear localization; assay: TDP-43 localization analysis by immunofluorescence in MG-132 challenged iP11NA human motor neurons; details: 1 μM MG-132 for 20 hours, human motor neurons, vs unstressed
Experimental: (§1) Cell culture and differentiation of iPS Cells into motor neurons. Pluripotent stem cells were grown with mTeSR Plus medium on tissue culture dishes coated with Matrigel, and maintained in 5% CO2 incubators at 37° C. Stem cells were passaged as small aggregates of cells after 1 mM EDTA treatment. […] was added to the cultures for 16-24 h after dissociation to prevent cell death. The iP11NA iPS cell line was acquired from ALSTEM. This cell line was generated from pre-made footprint-free human iPS cells with DOX inducible Ngn2 that has been stably integrated into the human AAVS1 “Safe Harbor” site, and provides a convenient means to differentiate human iPS cells into neurons rapidly and efficiently. Motor neuron differentiation was achieved using a modified 5-day strategy.
This approach relies on neural induction through small molecule inhibition of SMAD signaling, accelerated neural differentiation through forced Ngn2 expression, and motor neuron patterning through the activation of retinoic acid and Sonic Hedgehog signaling pathways. In brief, pluripotent stem cells were dissociated to single cells using accutase and plated at a density of 80,000 cells per cm^2 on Matrigel-coated culture plates with mTeSR Plus medium supplemented with ROCK inhibitor (10 μM Y-27632, ATCC). When cells reached 50% confluency, medium was changed to differentiation medium BrainPhys medium supplemented with N2-A, SM1, […]. This time point was defined as day 0 (d0) of motor neuron differentiation. Treatment with small molecules was carried out as follows: 2 μg/mL Doxycyline, 10 μM SB431542, 100 nM LDN-193189, […] and 1 μM Smoothend agonist and 10 uM Edu. […]
A dose-responsive effect was further tested for Compound 183 using quantitative imaging analysis on the CellInsight™ CX7 High Content Analysis Platform. By comparing the intensity of TDP-43 staining in the nucleus and cytoplasm of human motor neurons, we determined Compound 183 could maintain nuclear TDP-43 from 370 nM-10 μM in the proteasome challenged motor neurons (see FIG. 2).

[3] = test system: TDP-43 splicing function; assay: qRT-PCR of TDP-43 sentinel transcripts (STMN2, ELAVL3, PFKP) in MG-132 challenged human motor neurons; details: MG-132 1 μM, human motor neurons, relative to unstressed
Experimental: as §1
This approach relies on neural induction through small molecule inhibition of SMAD signaling, accelerated neural differentiation through forced Ngn2 expression, and motor neuron patterning through the activation of retinoic acid and Sonic Hedgehog signaling pathways. In brief, pluripotent stem cells were dissociated to single cells using accutase and plated at a density of 80,000 cells per cm^2 on Matrigel-coated culture plates with mTeSR Plus medium supplemented with ROCK inhibitor (10 μM Y-27632, ATCC). When cells reached 50% confluency, medium was changed to differentiation medium BrainPhys medium supplemented with N2-A, SM1, […]. This time point was defined as day 0 (d0) of motor neuron differentiation. Treatment with small molecules was carried out as follows: 2 μg/mL Doxycyline, 10 μM SB431542, 100 nM LDN-193189, […] and 1 μM Smoothend agonist and 10 uM Edu. The full list of materials and their descriptions is included below in Table 5.
Total RNA was isolated from d14 motor neurons for qRT-PCR assays using TaqMan™ Fast Advanced Cells-to-CT™ Kit according to manufacturer's instructions. 7500 neurons per well of 96-well culture were routinely used for processing. qRT-PCR was then performed using multiplex assays from IDT using PrimeTime™ Gene Expression Master Mix (IDT) on a QuantStudio6Pro system. Quantitative levels for all genes assayed were normalized using GAPDH expression. […] Primers and probes used in this study are in Table 5.
To this end, we first examined whether proteasome inhibition, which triggers TDP-43 nuclear depletion, also leads to splicing defects associated with TDP-43 loss-of function. For comparison, we also treated human motor neurons with puromycin, which recruits TDP-43 to stress granules in the cytoplasm. We chose to analyze several transcripts that have relevant connections to ALS biology including STMN26,12, PFKP19, and ELAVL320,21. We used quantitative reverse transcription-polymerase chain reaction (qRT-PCR) to validate that in MG-132-treated motor neurons these transcripts were altered like in ALS patients.
Using this method, we next obtained RNA from independent motor neuron biological replicates after proteasome inhibition and Compound 183 treatment to determined by qRT-PCR the relative abundance of these transcripts. […] A dose-responsive effect was further tested for Compound 183 using qRT-PCR in this model. […] Collectively, the data support the notion that Compound 183 promotes TDP-43 nuclear function under proteotoxic stress.

Structure (SMILES): CC(C)C[C@@H](C=O)NC(=O)[C@H](CC(C)C)NC(=O)[C@H](CC(C)C)NC(=O)OCc1ccccc1 [MG-132, reference compound] (Cbz-Leu-Leu-Leu-aldehyde)
- effect of stressor on TDP-43 distribution between fractions (immunoblot) [1]: significant change in TDP-43 distribution from the soluble, nuclear compartment to the insoluble fraction
- effect of stressor on nuclear TDP-43 staining (immunofluorescence) [2]: induced a loss of nuclear TDP-43 staining
- effect of stressor on cryptic splicing of STMN2, ELAVL3, PFKP (qPCR) [3]: strong induction of cryptic splicing
- effect of stressor on normal transcript levels (qPCR) [3]: decreased levels for normal STMN2 as well as the cryptic exon-disrupted splice junctions in PFKP and ELAVL3
